Assay results reported in PMC8452690, “Structural basis for small molecule targeting of Doublecortin Like Kinase 1 with DCLK1-IN-1” (Communications Biology, 2021).
Residue numbers refer to the chain shown, from its start. Marks after values point to notes of the source that are not given here.

Tests used:
DCLK1-FL1Δ D511N [1] = target: T1, DCLK1-FL1Δ D511N (Homo sapiens, UniProt O15075, D511N); assay: SPR binding to immobilised DCLK1-FL1Δ D511N (non-phosphorylated); details: for Kd / kon, kinetic fitting: SPR; for kon, kinetic fitting: DCLK1 FL1Δ D511N; for koff: read-out: koff, kinetic fitting; for kon: read-out: kon (Fig. 5c)
T1 construct: DCLK1-FL1Δ (residues 50-686); 8XHis tag with TEV protease cleavage site (N); made in house; host or cells: Escherichia coli C41(DE3)
T1 sequence (O15075 50-686 D511N): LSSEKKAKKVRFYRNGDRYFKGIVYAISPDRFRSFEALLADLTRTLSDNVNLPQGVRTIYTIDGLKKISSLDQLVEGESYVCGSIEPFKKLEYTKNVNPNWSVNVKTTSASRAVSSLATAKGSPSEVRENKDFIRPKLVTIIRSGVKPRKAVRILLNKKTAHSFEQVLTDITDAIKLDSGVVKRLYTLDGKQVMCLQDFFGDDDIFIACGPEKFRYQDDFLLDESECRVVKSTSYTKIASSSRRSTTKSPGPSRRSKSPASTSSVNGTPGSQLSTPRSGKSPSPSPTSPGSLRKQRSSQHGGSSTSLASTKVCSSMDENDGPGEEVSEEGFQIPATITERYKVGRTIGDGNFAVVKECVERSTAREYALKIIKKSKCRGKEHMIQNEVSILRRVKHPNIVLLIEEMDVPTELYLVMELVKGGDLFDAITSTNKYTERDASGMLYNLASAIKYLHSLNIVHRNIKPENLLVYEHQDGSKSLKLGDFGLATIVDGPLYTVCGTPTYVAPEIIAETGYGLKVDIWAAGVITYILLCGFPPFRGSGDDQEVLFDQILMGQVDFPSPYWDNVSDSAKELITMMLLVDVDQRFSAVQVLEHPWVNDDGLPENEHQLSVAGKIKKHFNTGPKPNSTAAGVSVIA
Protocol: (§1) SPR studies were carried out on a Biacore 2000 instrument (Cytivia). Proteins were immobilised at 25 °C using standard amine coupling to a CM5 chip (Cytivia) in immobilisation buffer consisting of 10 mM HEPES pH 7.4, 150 mM NaCl, 1 mM TCEP, 0.005% Tween P20, 1% (v/v) DMSO. To the active flow, cells were coupled either DCLK1-FL1Δ D511N or WT to a final density of approximately 7000 RU, followed by surface deactivation with 1 M ethanolamine. For each protein, coupling was performed at a concentration of 2 µM protein in 10 mM sodium acetate buffer pH 4.0, 1% (v/v) DMSO final, in the presence 10 µM of the moderate affinity compound FMF-03-149-01 (IC50 ~400 nM)[28] to help to stabilise the kinase domain during immobilsiation at low pH. A blank immobilisation was performed on the reference flow cell.
(§2) Binding experiments were performed at 18 °C in running buffer consisting of 20 mM HEPES, pH 7.4, 150 mM NaCl, 1 mM tris(2-carboxyethyl)phosphine (TCEP), 0.005% (v/v) Tween-P20, and 2% (v/v) DMSO. Compounds (10 mM stocks in 100% DMSO) were diluted in DMSO to 500 µM (DCLK1-NEG) or 25 µM (all other compounds) then in running buffer (without DMSO) to achieve the starting concentration with a final DMSO concentration of 2% (v/v). Samples were then serially titrated in running buffer containing 2% (v/v) DMSO to prepare each final concentration series (seven-point, three-fold serial dilution, 10 µM−13.7 nM for DCLK1-NEG, or 500−0.68 nM for all other compounds). Solutions were injected in multi-cycle format (in duplicate) without regeneration (contact time 80 s, flow rate 75 μL/min, dissociation time 600 s), with an extra wash (50% DMSO) after each injection.
(§3) Steady-state/kinetic binding data were fitted using the S200 BIAevaluation software (GE Healthcare). Sensorgrams from reference surfaces and blank injections were subtracted from the raw data (double-referencing), followed by solvent correction. Kinetic rate constants (kon and koff values) were obtained by fitting to 1:1 Langmuir binding model. Reported binding data represent mean ± SEM for three or four independent experiments. The dissociative half-life life (t1/2) for each inhibitor complex with DCLK1 was calculated from the fitted dissociation rate constant (koff), according to the equation 1 (t1/2 = ln(2)/koff.)

DCLK1-FL1Δ WT = target: T2, DCLK1-FL1Δ WT (Homo sapiens, UniProt O15075); assay: SPR binding to immobilised DCLK1-FL1Δ WT (phosphorylated); details: for Kd / kon, kinetic fitting: SPR, mean ± SEM; for Kd: 18 °C, DCLK1 FL1Δ WT immobilised; for kon, kinetic fitting: DCLK1 FL1Δ WT; for koff: read-out: koff, kinetic fitting
T2 sequence (O15075 50-686 isoform O15075-2): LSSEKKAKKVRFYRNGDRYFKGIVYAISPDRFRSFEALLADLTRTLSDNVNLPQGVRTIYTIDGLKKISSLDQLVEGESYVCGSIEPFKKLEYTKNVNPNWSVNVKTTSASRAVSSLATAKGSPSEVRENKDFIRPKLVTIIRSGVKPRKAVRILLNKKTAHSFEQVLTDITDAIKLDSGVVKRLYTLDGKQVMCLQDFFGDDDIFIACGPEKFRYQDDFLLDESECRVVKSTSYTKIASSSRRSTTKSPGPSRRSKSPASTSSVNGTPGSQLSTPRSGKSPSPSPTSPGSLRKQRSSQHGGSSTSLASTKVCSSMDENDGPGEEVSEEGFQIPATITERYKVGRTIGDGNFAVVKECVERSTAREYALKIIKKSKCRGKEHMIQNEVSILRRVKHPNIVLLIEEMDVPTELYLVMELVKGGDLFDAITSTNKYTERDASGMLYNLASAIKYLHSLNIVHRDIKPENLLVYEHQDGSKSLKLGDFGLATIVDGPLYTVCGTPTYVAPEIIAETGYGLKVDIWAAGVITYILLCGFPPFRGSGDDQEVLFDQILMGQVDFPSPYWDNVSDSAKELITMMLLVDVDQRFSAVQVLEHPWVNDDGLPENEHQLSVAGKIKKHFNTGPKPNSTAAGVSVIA
Protocol: as §1, §2, §3

[2] = target: T3, DCLK1-KD (residues 372-649) (Homo sapiens, UniProt O15075); assay: Thermal shift stability assay, DCLK1-KD; assay type: binding; details: compound titration 2.5 to 40 μM
T3 construct: the DCLK1 kinase domain (DCLK1-KD; residues 372-649) by carrying out thermal stability assays; 8XHis tag with TEV protease cleavage site (N); made in house; host or cells: Escherichia coli C41(DE3)
T3 sequence (O15075 372-649 isoform O15075-2): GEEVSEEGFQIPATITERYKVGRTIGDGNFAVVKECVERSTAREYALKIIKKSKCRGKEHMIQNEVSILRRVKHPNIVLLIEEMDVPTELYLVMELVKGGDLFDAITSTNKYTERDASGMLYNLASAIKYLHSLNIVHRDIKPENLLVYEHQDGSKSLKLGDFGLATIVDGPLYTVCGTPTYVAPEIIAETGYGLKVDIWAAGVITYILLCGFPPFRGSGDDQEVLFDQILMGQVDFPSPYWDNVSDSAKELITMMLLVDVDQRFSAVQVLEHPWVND
Protocol: (§4) DCLK1 proteins were diluted in 150 mM NaCl, 20 mM Tris pH 8.0, 1 mM DTT to […] final concentration and assayed with the appropriate concentration of inhibitor in a total reaction volume of 25 μL. SYPRO Orange (Molecular Probes) was used as a fluorescence probe and detected at 530 nm. The data shown are representative of two independent experiments.

DCLK1 = details: N-ethyl substitution at R4; cited from earlier work
DCLK1-KD G532V = target: T4, DCLK1-KD G532V (Homo sapiens, UniProt O15075, G532V); assay: Thermal shift stability assay, DCLK1-KD G532V; assay type: binding; details: XMD8-85 40 μM, versus DCLK1-KD WT
T4 construct: Truncated DCLK1 constructs, DCLK1-KD (residues 372-649); 8XHis tag with TEV protease cleavage site (N); made in house; host or cells: Escherichia coli C41(DE3)
T4 sequence (O15075 372-649 isoform O15075-2 G532V): T3 sequence (O15075 372-649 isoform O15075-2) with G161V
Protocol: as §4, with “Thermal shift stability assays were performed as described previously. DCLK1” for “DCLK1”

DCLK1-FL1Δ D511N [3] = target: T1, DCLK1-FL1Δ D511N; assay: Thermal shift stability assay, DCLK1-FL1Δ D511N; assay type: binding; details: 40 μM
Protocol: as §4

[4] = target: T5, DCLK1-FL1Δ D511N tubulin polymerisation (MAP function) (Homo sapiens, UniProt O15075, D511N); assay: Tubulin polymerisation and pelleting assay with DCLK1-FL1Δ D511N; assay type: biochemical; details: 40 μM, pelleting / SDS-PAGE (Fig. 5d)
T5 construct: DCLK1-FL1Δ (residues 50-686); 8XHis tag with TEV protease cleavage site (N); made in house; host or cells: Escherichia coli C41(DE3)
T5 sequence (O15075 50-686 isoform O15075-2 D511N): T2 sequence (O15075 50-686 isoform O15075-2) with D462N
Protocol: Tubulin polymerisation assays were performed in buffer containing 80 mM PIPES at pH 6.9, 2.0 mM MgCl2, 0.5 mM EGTA, 2.5 mM β,γ-Methyleneguanosine 5’-triphosphate, and 10 μM tubulin and 5 μM DCLK1 for 1 h at 37 °C. For tubulin polymerisation in the presence of inhibitors, various concentrations of the inhibitors were first incubated with DCLK1 and allowed to stand on ice for 5 min before adding this mix to the tubulin polymerisation reaction. Following the tubulin polymerisation, the reaction mix was pelleted at 20,000 g for 20 min and the supernatant and the pellet fractions were run on a 12% SDS gel. The data shown are representative of two independent experiments.

[5] = target: T5, DCLK1-FL1Δ D511N tubulin polymerisation (MAP function); assay: Fluorescence-based Tubulin Polymerisation Assay with DCLK1-FL1Δ D511N; assay type: biochemical; details: 80 μM, fluorescence (Fig. 5e)
Protocol: Tubulin polymerisation assay were performed using the Microtubule Polymerisation/Depolymerisation Fluorescence Kit (Cytoskeleton #BK011P) in accordance with the manufacturer’s instructions. DCLK1 (4 μΜ) was added to 50 μL tubulin reaction mix containing Buffer 1 (80 mM PIPES at pH 6.9, 2.0 mM MgCl2, 0.5 mM EGTA, 10 μM fluorescent reporter), guanosine triphosphate stock solution at 100 mM, and tubulin (10 mg/ml) stock solution, as described by the manufacturer. Paclitaxel, a control of tubulin polymerisation, was tested at 3 μM, and Νocodazole, a tubulin polymerisation inhibitor, was tested at 80 μΜ. DCLK1-IN-1 was tested at 20 and 40 μΜ with buffer alone as controls. Polymerisation leads to fluorescence enhancement due to incorporation of a fluorescence reporter into polymerising microtubules and was measured by excitation at 355 nm and emission at 460 nm. Readings were taken every 20 s on EnVision Multimode Plate Reader. Each condition was tested in duplicate with two independent batches of protein.

[6] = KD, kinetic fitting (1:1 binding model), 18 °C, DCLK1 FL1Δ D511N immobilised, mean ± SEM
[7] = KD, steady state fitting, 18 °C, DCLK1 FL1Δ D511N immobilised, mean ± SEM
[8] = kinetic fitting (1:1 binding model)

Kd (DCLK1-FL1Δ D511N [1]; KD (weak binding to DCLK1), top concentration 10 µM) | Kd (DCLK1-FL1Δ WT; steady state fitting) | SMILES | binding by shift in melting temperature (ΔTm) [2] | Kd (DCLK1-FL1Δ D511N [1]; [6]) | Kd (DCLK1-FL1Δ D511N [1]; [7]) | kon, kinetic fitting (DCLK1-FL1Δ D511N [1]; mean ± SEM) | koff (DCLK1-FL1Δ D511N [1]) | kon (DCLK1-FL1Δ D511N [1]) | Kd (DCLK1-FL1Δ WT; [8]) | kon, kinetic fitting (DCLK1-FL1Δ WT) | koff (DCLK1-FL1Δ WT) | enhanced potency on DCLK1 compared to XMD8-85 (DCLK1) | effect of Gly532 to valine mutation on binding affinity (DCLK1-KD G532V) | binding to DCLK1 by thermal stability assay (DCLK1-FL1Δ D511N [3]) | effect on tubulin polymerisation [4] | effect on tubulin polymerisation [5]
> 10000 nM | > 10000 nM | COc1cc(N2CCN(C)CC2)ccc1Nc1ncc2c(n1)N(C)c1ccc(C)cc1C(=O)N2CC(F)(F)F [DCLK1-NEG] | severely reduced binding to DCLK1-KD |  |  |  |  |  |  |  |  |  |  |  |  | 
 | 28 ± 2 nM | CCN1C(=O)c2ccccc2N(C)c2nc(Nc3ccc(N4CCN(C)CC4)cc3OC)ncc21 [FMF-03-055-1] |  | 13 nM | 24 ± 1 nM | 11 ± 4 1/Ms (x 10^5) | 0.014 ± 0.006 s⁻¹ | 1.1e+06 ± 400000 M⁻¹ s⁻¹ | 12 ± 2 nM | 9.6 ± 0.6 1/Ms (x 10^5) | 0.011 ± 0.001 s⁻¹ | 5 fold |  |  |  | 
 |  | COC(=O)Nc1nc2ccc(C(=O)c3cccs3)cc2[nH]1 [nocodazole] |  |  |  |  |  |  |  |  |  |  |  | does not bind | inhibits tubulin polymerisation | inhibits tubulin polymerisation

SMILES | Kd (DCLK1-FL1Δ D511N [1]; KD (weak binding to DCLK1), top concentration 10 µM) | Kd (DCLK1-FL1Δ WT; steady state fitting) | binding by shift in melting temperature (ΔTm) [2] | Kd (DCLK1-FL1Δ D511N [1]; [6]) | Kd (DCLK1-FL1Δ D511N [1]; [7]) | kon, kinetic fitting (DCLK1-FL1Δ D511N [1]; mean ± SEM) | koff (DCLK1-FL1Δ D511N [1]) | kon (DCLK1-FL1Δ D511N [1]) | Kd (DCLK1-FL1Δ WT; [8]) | kon, kinetic fitting (DCLK1-FL1Δ WT) | koff (DCLK1-FL1Δ WT) | enhanced potency on DCLK1 compared to XMD8-85 (DCLK1) | effect of Gly532 to valine mutation on binding affinity (DCLK1-KD G532V) | binding to DCLK1 by thermal stability assay (DCLK1-FL1Δ D511N [3]) | effect on tubulin polymerisation [4] | effect on tubulin polymerisation [5]
COc1cc(N2CCN(C)CC2)ccc1Nc1ncc2c(n1)N(C)c1ccccc1C(=O)N2C [XMD8-85] |  | 12 ± 2 nM | bind DCLK1-KD | 8 nM | 14 ± 1 nM | 12.8 ± 0.5 1/Ms (x 10^5) | 0.01 ± 0.001 s⁻¹ | 1.28e+06 ± 50000 M⁻¹ s⁻¹ | 7.5 ± 0.3 nM | 22 ± 2 1/Ms (x 10^5) | 0.016 ± 0.001 s⁻¹ |  | considerably reduces XMD8-85 binding affinity |  |  | 
